Test results from US20040242459A1 (priority 2001, published 2004).
Marks after values point to notes of the source that are not given here.

What was measured:
[1] = test system: adjuvant-induced arthritis in female Lewis rats
Protocol: Nine groups of 10 rats each were injected with an emulsion containing 0.5 mg of Mycobacterium butyricum in 0.1 ml of light mineral oil, and a negative control group of 10 rats was not injected with adjuvant. Body weights, primary (injected) and contralateral (non-injected) paw volumes (determined by mercury displacement plethysmography) and lateral radiographs (obtained under Ketamine and Xylazine anesthesia) were determined before (day-1) and at various time points including 21 days following adjuvant injection. The rats were anesthetized with an intramuscular injection of 0.03-0.1 ml of a combination of Ketamine (87 mg/kg) and Xylazine (13 mg/kg) for radiographs and injection of adjuvant. Lateral to medial radiographs were made of both hind paws on days 0 and 21 for using the Faxitron (45 kVp, 30 seconds or 45 kVp, 1 second) and Kodak X-OMAT TL film, and were developed in an automatic processor. […] Specific criteria were used to establish the numerical grade of severity for each radiographic change. The maximum possible score per foot was 26. Compounds or vehicle were administered prophylactically beginning post injection of adjuvant and continuing for 21 days. The Compounds were prepared weekly, refrigerated in the dark until used, and vortex mixed immediately prior to administration. […] The liver, thymus and spleens of all rats were removed and weighed and both hind paws were removed and radiographed.
Two-factor (‘treatment’ and ‘time’) analysis of variance with repeated measures on ‘time’ were applied to the percent changes for body weight and foot volumes and to the rank-transformed radiographic total scores. A post hoc Dunnett's test was conducted to compare the effect of treatments to vehicle. A one-way analysis of variance was applied to the thymic and spleen weights followed by the Dunnett's test to compare the effect of treatments to vehicle.
Compounds or vehicle (0.5% Methocel in sterile water) were administered by oral gavage once daily for 21 days following induction of arthritis in female Lewis rats via the sub plantar injection of 0.1 ml of light mineral oil containing 0.5 mg of Mycobacterium butyricum. Control animals were not injected with adjuvant. Body weights were measured 1 day prior to (i.e. day 0) and at 14 and 21 days post induction of arthritis. The data in Table 1 represent the mean increase or decrease in body weight ±1 standard deviation for groups of 9 to 10 animals.
Compounds or vehicle (0.5% Methocel in sterile water) were administered by oral gavage once daily for 21 days following induction of arthritis in female Lewis rats via the sub plantar injection of 0.1 ml of light mineral oil containing 0.5 mg of Mycobacterium butyricum. Control animals were not injected with adjuvant.
(§1) Injected foot volumes were measured by mercury displacement plethysmography prior to induction of arthritis, and on days 4, 14 and 21 post induction of arthritis. The data represent the mean increase in foot volume ±1 standard deviation for groups of 9 to 10 animals. The extent of paw swelling in compound-treated animals was compared to the mean of that in the vehicle-treated group, and percentage inhibition was calculated for each dose level of compound.
as §1, with “Contralateral foot” for “Injected foot”, “prior to,” for “prior to induction of arthritis,”, “and at” for “and on”, “days” for “days 4,”
[…] Data represent the mean weights of organs in mg ±1 standard deviation for groups of 9 to 10 animals.
Total radiographic scores were derived from examination of lateral radiographs obtained prior to, and on day 21 post induction of arthritis.

[2] = target: T1, recombinant human PPARα (GST-PPARα) (Homo sapiens, UniProt Q07869); assay: Scintillation Proximity Assay, displacement of [3H2]Compound A from PPARα; format: binding; conditions: human PPARα binding; read-out: IC50 (μM: SPA or BND) Alpha
T1 construct: The full length human cDNAs for PPARδ and PPARα were subcloned into the pGEX-KT expression vector; made in house; host or cells: E. coli
T1 sequence (Q07869 1-468): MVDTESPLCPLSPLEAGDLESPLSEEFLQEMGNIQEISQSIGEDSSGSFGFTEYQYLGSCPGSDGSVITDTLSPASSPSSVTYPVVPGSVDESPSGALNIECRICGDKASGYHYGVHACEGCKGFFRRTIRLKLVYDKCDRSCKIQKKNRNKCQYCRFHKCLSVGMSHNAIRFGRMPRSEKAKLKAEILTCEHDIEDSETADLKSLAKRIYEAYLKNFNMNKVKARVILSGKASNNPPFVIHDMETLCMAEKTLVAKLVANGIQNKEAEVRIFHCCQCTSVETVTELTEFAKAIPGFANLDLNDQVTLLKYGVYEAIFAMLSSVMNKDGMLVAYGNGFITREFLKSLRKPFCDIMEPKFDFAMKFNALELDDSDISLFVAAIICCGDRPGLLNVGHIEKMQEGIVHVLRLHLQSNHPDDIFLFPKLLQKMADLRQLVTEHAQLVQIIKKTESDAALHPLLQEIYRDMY
Source text: As an approach to identifying human PPAR agonists, a Scintillation Proximity Assay was used to characterize PPAR-γ, PPAR-δ, and PPAR-α ligands.
Human PPARγ2, human PPARδ and human PPARα were expressed as GST-fusion proteins in E. coli. The full length human cDNA for PPARγ 2 was subcloned into the pGEX-2 T expression vector (Amersham Pharmacia Biotech, Inc.). The full length human cDNAs for PPARδ and PPARα were subcloned into the pGEX-KT expression vector (Amersham Pharmacia Biotech, Inc.). E. coli containing the respective plasmids were propagated, induced, and harvested by centrifugation. The resuspended pellet was broken in a French press and debris removed by centrifugation. Recombinant human PPAR receptors were purified by affinity chromatography on glutathione sepharose. After application to the column, and one wash, receptor was eluted with glutathione. Glycerol (10%) was added to stabilize the receptor and aliquots were stored at −80° C.
After incubation for ˜16 h at 15° C. with shaking, the assay plates were counted in a Packard Topcount with quench correction.

[3] = injected paw, same doses p.o. q.d.
[4] = weight at necropsy, day of euthanasia 21 (Compound 1, indomethacin) or 15 (Compounds 2-6), mean ± SD

SMILES: CCCc1cc(Oc2ccccc2)ccc1OCCc1cc2cc(CC(=O)O)ccc2[nH]1 [Compound 2, {2-[2-(4-phenoxy-2-propylphenoxy)ethyl]-1H-indol-5-yl}acetic acid]
- Change in Secondary Foot Volume Day 14-0 ([1]; contralateral paw, p.o. q.d., Compounds 1, 2, 4, 6 30 mg/kg/day, Compound 3 50, Compound 5 100, indomethacin 2, mean ± SD): 786 ± 220 µL
- Secondary Foot Volume % Inhibition Compared to Vehicle Day 14-0 ([1]; contralateral paw, same doses p.o. q.d.): 0%
- Change in Primary Foot Volume Day 4-0 ([1]; injected paw, p.o. q.d., Compounds 1, 2, 4, 6 30 mg/kg/day, Compound 3 50, Compound 5 100, indomethacin 2, mean ± SD): 1642 ± 386 µL
- Primary Foot Volume % Inhibition Compared to Vehicle Day 4-0 [1, 3]: 18.6%
- Primary Foot Volume % Inhibition Compared to Vehicle Day 14-0 [1, 3]: 21.3%
- Change in Primary Foot Volume Day 14-0 ([1]; injected paw, same doses p.o. q.d., mean ± SD): 1875 ± 418 µL
- change in body weight Day 14-0 ([1]; p.o. q.d., Compounds 1, 2, 4, 6 30 mg/kg/day, Compound 3 50, Compound 5 100, indomethacin 2 mg/kg/day, mean ± SD): 0.8 ± 7.3**^++ grams
- prevention of swelling of primary or secondary paws ([1]; up to day 14, rats then euthanized): failed to prevent swelling of either the primary or secondary paws
- Spleen [1, 4]: 590.8 ± 82.1 mg
- Thymus [1, 4]: 168.7 ± 44.6 mg
- IC50 [2]: 1.48 µM
